Laboratory results reported in patent US12721818B2, “Compositions and methods for delivery of RNA” (Rejuvenation Technologies Inc., priority 2021, dated 2026).

Experiment: pK of the ionizable lipid (Table 6A)
Assay type: physicochemical
Settings: ionizable lipid of the Table 6A formulation

pK: ~6.4
SMILES: CCCCCCCC/C=C\CCCCCCCC(=O)Oc1ccc(CC(=O)OCCC2CCN(CCSSCCN3CCC(CCOC(=O)Cc4ccc(OC(=O)CCCCCCC/C=C\CCCCCCCC)cc4)CC3)CC2)cc1 [SS-OP]
